Measured values reported in ChEMBL document CHEMBL3430912, “GSK Tres Cantos Anti-Kinetoplastid Screening (TCAKS) Data”.

Columns and labels:
[1] = tested on: Trypanosoma brucei brucei; assay: GSK_TCAKS: pIC50 Trypanosoma brucei viability assay using luminiscence. Assay plates (1536-well) were prepared. T. brucei cultures were harvested and counted in a CASY cell counter. A parasite suspension was prepared at a final concentration of 5 * 10^4 cells/mL in complete HMI9 medium and 6uL was dispensed to all wells containing compounds using a Multidrop Combi dispenser. 6uL of HMI9 media with 0.4% DMSO were dispensed to control columns. Plates were incubated for 24 h at 37C, 5% CO2 then tempered for 10 min at room temperature. ATP content was quantified by adding 4 uL of CellTiter-Glo Reagent (Promega) according to the manufacturer's instructions. Luminescence was measured using a ViewLux.; assay type: functional, organism-based; settings: Lister 427, CASY
[2] = biological target: Sterol 14-alpha demethylase (Trypanosoma cruzi (strain CL Brener), UniProt Q7Z1V1); assay: GSK_TCAKS: pIC50 CYP51 from Trypanosoma cruzi.; assay type: functional
Sterol 14-alpha demethylase, sequence (Q7Z1V1 whole entry): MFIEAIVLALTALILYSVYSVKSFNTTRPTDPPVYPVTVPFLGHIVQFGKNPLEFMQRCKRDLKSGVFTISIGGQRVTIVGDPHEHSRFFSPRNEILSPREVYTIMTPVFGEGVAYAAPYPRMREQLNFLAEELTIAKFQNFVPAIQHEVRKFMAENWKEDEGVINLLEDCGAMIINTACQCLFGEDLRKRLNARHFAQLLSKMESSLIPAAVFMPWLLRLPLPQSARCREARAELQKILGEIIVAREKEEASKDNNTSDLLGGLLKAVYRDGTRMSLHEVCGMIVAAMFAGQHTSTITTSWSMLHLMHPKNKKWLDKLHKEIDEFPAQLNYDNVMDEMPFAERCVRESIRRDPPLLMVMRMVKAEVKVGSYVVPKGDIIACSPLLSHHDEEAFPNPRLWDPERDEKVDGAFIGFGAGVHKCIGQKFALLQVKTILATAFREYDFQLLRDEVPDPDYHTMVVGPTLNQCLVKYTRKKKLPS

[3] = GSK_TCAKS: pIC50 HepG2 human cell line viability assay using luminiscence. […] Seeding density was checked to ensure that new mono-layers were not more than 50% confluent at the time of harvesting. Cell suspension was added to 500 mL of the same medium at a final density of 1.2 * 10^5 cells/mL. This cell suspension was dispensed (25 uL, 3000 cells per well) into 384-well clear-bottom plates using a Multidrop Combi dispenser. Prior to addition of the cell suspension, the screening compounds (250 nL) were pre-dispensed into the plates with an Echo liquid handler. Plates were incubated for 48 h at 37C, 5% CO2. After incubation, plates equilibrated at room temperature for 30 min before proceeding to develop the luminescent signal. The signal developer, CellTiter-Glo Reagent, was allowed to equilibrate at room temperature for 30 min and added to the plates (25uL per well) using a Multidrop Combi dispenser. Plates were left for 10 min at room temperature for stabilization and then read using a ViewLux.; assay type: toxicity, cell-based
[4] = tested on: Trypanosoma brucei brucei; assay: GSK_TCAKS: pIC50 Trypanosoma brucei viability assay using fluorescence intensity. Assay plates (1536-well) were prepared by dispensing 25nL of compound solution per well using an Echo acoustic dispenser (Labcyte).; assay type: functional, organism-based; settings: Lister 427, 2 h
Trypanosoma cruzi [5] = assay: (§1) GSK_TCAKS: pIC50 Trypanosoma cruzi Imaging: Amastigotes/Cell. […] Cells were then washed once with PBS before infection. T. cruzi trypomastigotes, collected at days 5 to 8 after infection from LLC-MK2 parasite infected cultures, were allowed to swim out for 4h at 37C from a centrifuged pellet (2,500 rpm/10 min/room temperature). Trypomastigotes were then collected and counted in a CASY Cell Counter. Trypomastigotes, in supplemented DMEM, were added to H9c2 cultures in a multiplicity of infection of 1 and incubated for 18 h. Cells were washed once with PBS before incubation of the infected H9c2 monolayer with trypsin (Life-Technologies) to detach cells from the flask. Cells were counted in a CASY Cell Counter using a 150 um capillary and their density set at 5 * 10^4 cells per mL in supplemented assay DMEM. Infected H9c2 were dispensed into 384-well poly-lysine coated assay plates at 50uL per well using a Multidrop Combi dispenser. After seeding them, the plates were incubated at 37C, 5% CO2 for 72h. Cultures were then fixed and stained by addition of 50 uL of a solution containing 8% formaldehyde and 4 uM DRAQ5 DNA dye (BioStatus, UK) per well. […] Five images were collected per well for reliable statistical analysis. Automated image analysis was performed with a script developed on Acapella High Content Imaging and Analysis Software (PerkinElmer). Output: number of amastigotes per cell as infection level measurement.; assay type: functional, organism-based, Rattus norvegicus; settings: H9c2, 4 h
Leishmania donovani [6] = assay: GSK_TCAKS: pIC50 Leishmania donovani viability assay using fluorescence intensity. Assay plates (1536-well) were prepared by adding 30nL per well of compound. For single shot assay, the final compound concentration was 5uM. […] Briefly, eGFP LdBOB axenic amastigotes were harvested, fixed and counted in a CASY cell counter (Roche-Applied Science). A final concentration of 1.5 * 10^5 cells per well were prepared in amastigote media containing 500 U/mL penicillin/streptomycin (Invitrogen) and 6uL was dispensed to each experimental well using a Multidrop Combi dispenser (Thermo Scientific). 6uL of assay media was dispensed to control columns used as reference for 100% compound response. Following incubation for 72 h at 37C, 5% CO2, 2 uL of resazurin was added to each well at a final concentration of 0.5 mM in phosphate buffered saline (PBS) with IGEPAL (Sigma-Aldrich), 0.05% (v/v).; assay type: functional, organism-based
Leishmania donovani [7] = assay: (§2) GSK_TCAKS: pIC50 Leishmania donovani Imaging: Infected Macrophages. Assay plates (384-well) were prepared by adding 250nL of compound to each well. For single shot assay, the final compound concentration was 5 uM. […] Automated image analysis was performed with a script developed on Acapella High Content Imaging and Analysis Software (PerkinElmer). Output: Percent of infected macrophage cells were reported for each well.; assay type: functional, organism-based, Homo sapiens; settings: THP-1
Trypanosoma cruzi [8] = assay: as §1, with “H2C9” for “Trypanosoma cruzi”, “H9c2 Host Cardiomyocytes.” for “Amastigotes/Cell.”, “Number” for “number”, “H9c2 Host Cardiomyocytes nuclei to determine drug-related cytotoxicity.” for “amastigotes per cell as infection level measurement.”; assay type: functional, organism-based, Rattus norvegicus; settings: H9c2, 4 h
Leishmania donovani [9] = assay: as §2, with “Amastigotes/Macrophages.” for “Infected Macrophages.”, “Average number” for “Percent”, “amastigotes per” for “infected”, “cell” for “cells”; assay type: functional, organism-based, Homo sapiens; settings: THP-1
Leishmania donovani [10] = assay: as §2, with “THP-1 Host” for “Infected”, “THP-1 cell count” for “Percent of infected macrophage cells”; assay type: functional, organism-based, Homo sapiens
Trypanosoma cruzi [11] = assay: GSK_TCAKS: pIC50 Trypanosoma cruzi viability assay using beta-GAL activity. This assay was run at single shot at 5uM compound concentration per well. The biological reagents consisted of NIH-3T3 host cells and trypomastigotes parasitic cells; both cell types were set to a 3.3 * 10^5 cells/mL dilution in assay DMEM by means of a CASY cell counter device using a 60um capillary. 6 uL of the mixture were dispensed per well (about 1 * 10^3 host-cells and 1 * 10^3 parasites) with a Multidrop Combi dispenser. […] In all wells, the percentage of DMSO never exceeded 0.5%. Plates incubated for four days at 37C, 5% CO2. The substrate used for the assay fluorescence intensity (FLINT) readout was resorufin-beta-D-galactopiranoside (Sigma-Aldrich) at 5uM per well. It was diluted in PBS supplemented with the soft detergent Igepal (Fluka).; assay type: functional, organism-based, Mus musculus; settings: Tulahuen, NIH3T3
Trypanosoma cruzi [12] = assay: GSK_TCAKS: pIC50 Trypanosoma cruzi Imaging: Infected Cells. […] Cells were then washed once with PBS before infection. T. cruzi trypomastigotes, collected at days 5 to 8 after infection from LLC-MK2 parasite infected cultures, were allowed to swim out for 4h at 37C from a centrifuged pellet (2,500 rpm/10 min/room temperature). Trypomastigotes were then collected and counted in a CASY Cell Counter. Trypomastigotes, in supplemented DMEM, were added to H9c2 cultures in a multiplicity of infection of 1 and incubated for 18 h. Cells were washed once with PBS before incubation of the infected H9c2 monolayer with trypsin (Life-Technologies) to detach cells from the flask. Cells were counted in a CASY Cell Counter using a 150 um capillary and their density set at 5 * 10^4 cells per mL in supplemented assay DMEM. Infected H9c2 were dispensed into 384-well poly-lysine coated assay plates at 50uL per well using a Multidrop Combi dispenser. After seeding them, the plates were incubated at 37C, 5% CO2 for 72h. Cultures were then fixed and stained by addition of 50 uL of a solution containing 8% formaldehyde and 4 uM DRAQ5 DNA dye (BioStatus, UK) per well. […] Five images were collected per well for reliable statistical analysis. Automated image analysis was performed with a script developed on Acapella High Content Imaging and Analysis Software (PerkinElmer). Output: percentage of infected cells per well as a second infection marker.; assay type: functional, organism-based, Rattus norvegicus; settings: H9c2, 4 h
NIH3T3 = assay: GSK_TCAKS: pIC50 NIH 3T3 cell line viability assay using luminiscence. Tissue culture surface treated assay plates (1536-well) were used. […] The 100% cells survival control was determined exposing the host-cells to a 0.5% DMSO concentration, whereas the 100% toxicity control was achieved by seeding the cells in presence of Amphotericin B at 50uM. Plates were incubated for four days at 37C, 5% CO2. The assay readout was developed by addition of 5uL of CellTiter-Glo Reagent following the manufacturer's instructions. Luminiscence was measured using a ViewLux.; assay type: functional, cell-based; settings: Mus musculus, NIH3T3, 96 h

SMILES: CC(=Cc1ccccc1)CN1CCC(=O)N(Cc2cccnc2)CC1
- IC50 [1]: > 39.8 µM
- IC50 [2]: 0.1 µM
- IC50 at 48 h [3]: > 100 µM
- IC50 [4]: > 39.8 µM
- IC50 (Trypanosoma cruzi [5]): 0.501 µM
- IC50 (Leishmania donovani [6]): > 50.1 µM
- IC50 (Leishmania donovani [7]): > 50.1 µM
- IC50 (Trypanosoma cruzi [8]): > 50.1 µM
- IC50 (Leishmania donovani [9]): 31.6 µM
- IC50 (Leishmania donovani [10]): 39.8 µM
- IC50 (Trypanosoma cruzi [11]): 0.251 µM
- IC50 (Trypanosoma cruzi [12]): 0.501 µM
- IC50 (NIH3T3): > 50.1 µM

SMILES: CN1CCN(c2nc(-c3ccc(Cl)cc3)c3c(N)n(C)nc3n2)CC1
- IC50 [1]: 31.6 µM
- IC50 [2]: > 100 µM
- IC50 at 48 h [3]: 79.4 µM
- IC50 [4]: 12.6 µM
- IC50 (Trypanosoma cruzi [5]): 0.794 µM
- IC50 (Leishmania donovani [6]): > 50.1 µM
- IC50 (Leishmania donovani [7]): 39.8 µM
- IC50 (Trypanosoma cruzi [8]): 25.1 µM
- IC50 (Leishmania donovani [9]): 31.6 µM
- IC50 (Leishmania donovani [10]): 39.8 µM
- IC50 (Trypanosoma cruzi [11]): 2 µM
- IC50 (Trypanosoma cruzi [12]): 1 µM
- IC50 (NIH3T3): 25.1 µM

SMILES: COc1ccc(C)cc1-c1csc(NC(=O)C(C)n2ccnc2)n1 (centres undefined)
- IC50 [1]: > 39.8 µM
- IC50 [2]: 0.0398 µM
- IC50 at 48 h [3]: > 100 µM
- IC50 [4]: 25.1 µM
- IC50 (Trypanosoma cruzi [5]): 0.1 µM
- IC50 (Leishmania donovani [6]): 3.16 µM
- IC50 (Leishmania donovani [7]): > 50.1 µM
- IC50 (Trypanosoma cruzi [8]): > 50.1 µM
- IC50 (Leishmania donovani [9]): > 50.1 µM
- IC50 (Leishmania donovani [10]): > 50.1 µM
- IC50 (Trypanosoma cruzi [11]): 0.0708 µM
- IC50 (Trypanosoma cruzi [12]): 0.1 µM
- IC50 (NIH3T3): 50.1 µM

SMILES: CC(C)Oc1cccc(N2CCC(C(=O)N3CCCN(C(C)C)CC3)CC2)c1
- IC50 [1]: > 39.8 µM
- IC50 [2]: > 100 µM
- IC50 at 48 h [3]: > 100 µM
- IC50 [4]: > 39.8 µM
- IC50 (Trypanosoma cruzi [5]): 0.251 µM
- IC50 (Leishmania donovani [6]): > 50.1 µM
- IC50 (Leishmania donovani [7]): > 50.1 µM
- IC50 (Trypanosoma cruzi [8]): > 50.1 µM
- IC50 (Leishmania donovani [9]): > 50.1 µM
- IC50 (Leishmania donovani [10]): > 50.1 µM
- IC50 (Trypanosoma cruzi [11]): 1.26 µM
- IC50 (Trypanosoma cruzi [12]): 0.631 µM
- IC50 (NIH3T3): 31.6 µM

SMILES: CCN(Cc1ccncc1)Cc1ccc(NC(=O)c2cc(-c3ccc(F)cc3)n[nH]2)cc1
- IC50 [1]: > 39.8 µM
- IC50 [2]: 0.0794 µM
- IC50 at 48 h [3]: > 100 µM
- IC50 [4]: > 39.8 µM
- IC50 (Trypanosoma cruzi [5]): 0.251 µM
- IC50 (Leishmania donovani [6]): 15.8 µM
- IC50 (Leishmania donovani [7]): > 50.1 µM
- IC50 (Trypanosoma cruzi [8]): > 50.1 µM
- IC50 (Leishmania donovani [9]): 2.51 µM
- IC50 (Leishmania donovani [10]): 5.01 µM
- IC50 (Trypanosoma cruzi [11]): 0.398 µM
- IC50 (Trypanosoma cruzi [12]): 0.251 µM
- IC50 (NIH3T3): 10 µM

SMILES: COc1cccc(CCNC(=O)C(c2cn[nH]c2)N2CCN(c3ccc(Cl)cc3)CC2)c1 (centres undefined)
- IC50 [1]: 31.6 µM
- IC50 [2]: 0.0631 µM
- IC50 at 48 h [3]: 50.1 µM
- IC50 [4]: 20 µM
- IC50 (Trypanosoma cruzi [5]): 0.0158 µM
- IC50 (Leishmania donovani [6]): 12.6 µM
- IC50 (Leishmania donovani [7]): 20 µM
- IC50 (Trypanosoma cruzi [8]): 39.8 µM
- IC50 (Leishmania donovani [9]): 10 µM
- IC50 (Leishmania donovani [10]): 25.1 µM
- IC50 (Trypanosoma cruzi [11]): 0.02 µM
- IC50 (Trypanosoma cruzi [12]): 0.02 µM
- IC50 (NIH3T3): 31.6 µM

SMILES: COc1ccc2nc(N(Cc3cccnc3)C(=O)C3CCC3)sc2c1
- IC50 [1]: 39.8 µM
- IC50 [2]: 0.0631 µM
- IC50 at 48 h [3]: > 100 µM
- IC50 [4]: 20 µM
- IC50 (Trypanosoma cruzi [5]): 0.1 µM
- IC50 (Leishmania donovani [6]): 12.6 µM
- IC50 (Leishmania donovani [7]): > 50.1 µM
- IC50 (Trypanosoma cruzi [8]): > 50.1 µM
- IC50 (Leishmania donovani [9]): 50.1 µM
- IC50 (Leishmania donovani [10]): > 50.1 µM
- IC50 (Trypanosoma cruzi [11]): 0.126 µM
- IC50 (Trypanosoma cruzi [12]): 0.126 µM
- IC50 (NIH3T3): 50.1 µM

SMILES: CC(C)c1cc(C(=O)N2CCCC(c3cc4ncccc4[nH]3)C2)on1 (centres undefined)
- IC50 [1]: > 39.8 µM
- IC50 [2]: 50.1 µM
- IC50 at 48 h [3]: > 100 µM
- IC50 [4]: > 39.8 µM
- IC50 (Trypanosoma cruzi [5]): 1 µM
- IC50 (Leishmania donovani [6]): > 50.1 µM
- IC50 (Leishmania donovani [7]): > 50.1 µM
- IC50 (Trypanosoma cruzi [8]): > 50.1 µM
- IC50 (Leishmania donovani [9]): > 50.1 µM
- IC50 (Leishmania donovani [10]): > 50.1 µM
- IC50 (Trypanosoma cruzi [11]): 2 µM
- IC50 (Trypanosoma cruzi [12]): 3.16 µM
- IC50 (NIH3T3): 20 µM
